Assay results from ChEMBL document CHEMBL1201862, “PubChem BioAssay data set” (2004).
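Results reflect a 48-hour exposure of cells in 96-well plates to compound at five concentrations. Here, GI50 denotes the concentration required for 50% inhibition of growth.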 Activity calls are given as the source filed them. Rule as the data show it: active = GI50 up to about 1.1 µM and inactive = higher.

How the values were obtained:
Experiment in all cases: DTP human tumour cell line panel, 48 h
DU-145 = tested on: DU-145
SF-295 = tested on: SF-295
OVCAR-4 = tested on: OVCAR-4
MDA-MB-435 = tested on: MDA-MB-435
ACHN = tested on: ACHN
IGROV-1 = tested on: IGROV-1
NCI-H522 = tested on: NCI-H522
A498 = tested on: A498
HCC 2998 = tested on: HCC 2998
U-251 = tested on: U-251
NCI/ADR-RES = tested on: NCI/ADR-RES
HOP-92 = tested on: HOP-92
SK-OV-3 = tested on: SK-OV-3
NCI-H23 = tested on: NCI-H23
UACC-62 = tested on: UACC-62
MDA-MB-231 = tested on: MDA-MB-231
CAKI-1 = tested on: CAKI-1
OVCAR-3 = tested on: OVCAR-3
SNB-19 = tested on: SNB-19

Row | Compound | GI50 (DU-145) | GI50 (SF-295) | GI50 (OVCAR-4) | GI50 (MDA-MB-435) | GI50 (ACHN) | GI50 (IGROV-1) | GI50 (NCI-H522) | GI50 (A498) | GI50 (HCC 2998) | GI50 (U-251) | GI50 (NCI/ADR-RES) | GI50 (HOP-92) | GI50 (SK-OV-3) | GI50 (NCI-H23) | GI50 (UACC-62) | GI50 (MDA-MB-231) | GI50 (CAKI-1) | GI50 (OVCAR-3) | GI50 (SNB-19)
1 | O=c1oc2ccc3ccccc3c2cc1-c1nc2ccccc2s1 | > 100 µM (inactive) | > 100 µM (inactive) | > 100 µM (inactive) | > 100 µM (inactive) | > 100 µM (inactive) | > 100 µM (inactive) | > 100 µM (inactive) | > 100 µM (inactive) | > 100 µM (inactive) | > 100 µM (inactive) | > 100 µM (inactive) | > 100 µM (inactive) | > 100 µM (inactive) | > 100 µM (inactive) | > 100 µM (inactive) | > 100 µM (inactive) | > 100 µM (inactive) | > 100 µM (inactive) | –
2 | CC1=NN(c2cccc(Cl)c2)C2(SCC(=O)N2c2nc3ccccc3s2)/C1=C\c1cccs1 (centres undefined) | 46.5 µM (inactive) | 27.4 µM (inactive) | 21 µM (inactive) | 30.5 µM (inactive) | 27.9 µM (inactive) | 27.3 µM (inactive) | 21.2 µM (inactive) | 25.4 µM (inactive) | 16.6 µM (inactive) | 20.3 µM (inactive) | 21.9 µM (inactive) | 22.2 µM (inactive) | – | 18.5 µM (inactive) | – | 30.2 µM (inactive) | 29.7 µM (inactive) | 24.8 µM (inactive) | –
3 | CC(C)C(C)C(O)C(O)C(C)C1CCC2C3COC(=O)C4CC(O)C(O)CC4(C)C3CCC12C (centres undefined) | > 100 µM (inactive) | 78.5 µM (inactive) | 59 µM (inactive) | > 100 µM (inactive) | 25.4 µM (inactive) | > 100 µM (inactive) | 55.2 µM (inactive) | > 100 µM (inactive) | > 100 µM (inactive) | 62.5 µM (inactive) | > 100 µM (inactive) | 32.8 µM (inactive) | > 100 µM (inactive) | 92.7 µM (inactive) | > 100 µM (inactive) | > 100 µM (inactive) | 11.7 µM (inactive) | – | 28.1 µM (inactive)
4 | O=C1OS2(OC(=O)c3cccc4cccc2c34)c2ccccc21 (centres undefined) | > 100 µM (inactive) | > 100 µM (inactive) | > 100 µM (inactive) | > 100 µM (inactive) | > 100 µM (inactive) | > 100 µM (inactive) | > 100 µM (inactive) | > 100 µM (inactive) | – | > 100 µM (inactive) | > 100 µM (inactive) | > 100 µM (inactive) | – | > 100 µM (inactive) | > 10 µM (inactive) | > 100 µM (inactive) | > 100 µM (inactive) | > 100 µM (inactive) | > 100 µM (inactive)
5 | O=C(O)C1CCCN1Cc1cc2ccccc2c2ccccc12 (centres undefined) | > 100 µM (inactive) | > 100 µM (inactive) | > 100 µM (inactive) | > 100 µM (inactive) | > 100 µM (inactive) | > 100 µM (inactive) | > 100 µM (inactive) | > 100 µM (inactive) | – | > 100 µM (inactive) | > 100 µM (inactive) | > 100 µM (inactive) | > 100 µM (inactive) | > 100 µM (inactive) | > 100 µM (inactive) | > 100 µM (inactive) | > 100 µM (inactive) | > 100 µM (inactive) | > 100 µM (inactive)
6 | COC(=O)/C=C(\S/C(=N\n1cc(C(=O)OC)c(C(=O)OC)c1-c1ccc(C)cc1)c1ccc(C)cc1)C(=O)OC | 6.78 µM (inactive) | 32.8 µM (inactive) | 1.58 µM (inactive) | 5.94 µM (inactive) | 2.34 µM (inactive) | 7.85 µM (inactive) | 1.67 µM (inactive) | 12.8 µM (inactive) | 18.7 µM (inactive) | 5.66 µM (inactive) | 6.87 µM (inactive) | 2.8 µM (inactive) | 32.3 µM (inactive) | 5.62 µM (inactive) | 12 µM (inactive) | 5.25 µM (inactive) | – | 4.67 µM (inactive) | 34 µM (inactive)
7 | CCN1C/C(=C\c2ccc(Cl)cc2)c2nc(N)c(C#N)c(-c3ccc(Cl)cc3)c2C1 | > 100 µM (inactive) | > 100 µM (inactive) | > 100 µM (inactive) | > 100 µM (inactive) | > 100 µM (inactive) | > 100 µM (inactive) | > 100 µM (inactive) | > 100 µM (inactive) | > 100 µM (inactive) | > 100 µM (inactive) | > 100 µM (inactive) | – | > 100 µM (inactive) | > 100 µM (inactive) | > 100 µM (inactive) | > 100 µM (inactive) | > 100 µM (inactive) | > 100 µM (inactive) | > 100 µM (inactive)
8 | Oc1ccc2c(c1)OCC1c3ccccc3OC21 (centres undefined) | > 100 µM (inactive) | 50.6 µM (inactive) | 60.8 µM (inactive) | 33.8 µM (inactive) | 39.8 µM (inactive) | 51.9 µM (inactive) | – | > 100 µM (inactive) | 27.8 µM (inactive) | 42.6 µM (inactive) | 37.8 µM (inactive) | > 100 µM (inactive) | > 100 µM (inactive) | 44.9 µM (inactive) | 61.5 µM (inactive) | 78 µM (inactive) | 46.3 µM (inactive) | 59 µM (inactive) | 40.6 µM (inactive)
9 | Nc1nc(Cl)c(CO)c(NCC2(CO)CC(CCc3ccccc3)C2)n1 (centres undefined) | 22.6 µM (inactive) | 10.6 µM (inactive) | 14.4 µM (inactive) | 11.5 µM (inactive) | 24.4 µM (inactive) | > 10 µM (inactive) | 15.7 µM (inactive) | 22.2 µM (inactive) | 33.3 µM (inactive) | 26.2 µM (inactive) | 11.5 µM (inactive) | 24.3 µM (inactive) | – | 0.0951 µM (active) | – | 12.5 µM (inactive) | 37.8 µM (inactive) | 18.8 µM (inactive) | 61.5 µM (inactive)
10 | CO[C@@H]1[C@H](O)CC[C@]2(CO2)[C@H]1[C@@]1(C)O[C@@H]1CC=C(C)C | 140 µM (inactive) | 11 µM (inactive) | > 200 µM (inactive) | 95.5 µM (inactive) | 155 µM (inactive) | 104 µM (inactive) | > 200 µM (inactive) | > 200 µM (inactive) | – | 2.29 µM (inactive) | > 200 µM (inactive) | > 200 µM (inactive) | > 200 µM (inactive) | > 200 µM (inactive) | 54.3 µM (inactive) | 157 µM (inactive) | > 200 µM (inactive) | 189 µM (inactive) | 79.1 µM (inactive)
11 | CCOC(=O)CCCNC(=O)CCCCC(=O)N(C)C | > 100 µM (inactive) | > 100 µM (inactive) | – | > 100 µM (inactive) | > 100 µM (inactive) | > 100 µM (inactive) | > 100 µM (inactive) | > 100 µM (inactive) | > 100 µM (inactive) | > 100 µM (inactive) | > 100 µM (inactive) | > 100 µM (inactive) | > 100 µM (inactive) | > 100 µM (inactive) | > 100 µM (inactive) | > 100 µM (inactive) | > 100 µM (inactive) | > 100 µM (inactive) | > 100 µM (inactive)
